Reference: article PMC6787163, “Systematic Dual Targeting of Dendritic Cell C-Type Lectin Receptor DC-SIGN and TLR7 Using a Trifunctional Mannosylated Antigen” (Frontiers in Chemistry, 2019)
Values joined by “and” are separate entries in the source; they are usually repeats but may differ in a detail not shown here. Identical values can stand only once.

Legend:
DC-SIGN S-ECD = target: T1, DC-SIGN S-ECD (Homo sapiens, UniProt Q9NNX6); assay: SPR direct interaction assay on oriented DC-SIGN S-ECD surface; assay type: binding; settings: for Kd: SPR direct interaction, oriented tetrameric DC-SIGN ECD surface, apparent Kd, read-out: Kdapp
T1 construct: The ECD of DC-SIGN (residues 66–404) was overexpressed and purified as previously described; made in house
T1 sequence (Q9NNX6 66-404): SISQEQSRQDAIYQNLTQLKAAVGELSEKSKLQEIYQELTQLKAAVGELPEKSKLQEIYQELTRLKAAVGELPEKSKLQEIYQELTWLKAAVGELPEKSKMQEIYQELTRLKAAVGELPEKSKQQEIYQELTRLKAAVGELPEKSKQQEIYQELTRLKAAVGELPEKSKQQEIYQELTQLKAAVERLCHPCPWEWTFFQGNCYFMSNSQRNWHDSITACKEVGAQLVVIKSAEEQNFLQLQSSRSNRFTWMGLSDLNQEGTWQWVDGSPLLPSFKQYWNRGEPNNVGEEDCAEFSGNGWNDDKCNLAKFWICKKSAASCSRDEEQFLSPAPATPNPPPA
Protocol: (§1) The affinity of the clusters for the extracellular domain (ECD) of the DC-SIGN receptor (DC-SIGN ECD) was estimated via surface plasmon resonance (SPR) assays (Tabarani et al., [2009]). The apparent Kd was calculated in direct interaction mode using a surface functionalized in an oriented manner with DC-SIGN ECD. In this assay, tetrameric DC-SIGN ECD is attached to the surface of the sensor chip via the N-terminus of its neck oligomerization domain, thus presenting its four carbohydrate recognition domains toward the solvent, realistically mimicking the presentation of the receptor on cell surface (Porkolab et al., [2019]). For some of the low affinity ligands, in the mM range, it was not possible to determine their affinity with this assay, and therefore a competition experiment was performed providing IC50 values (Timpano et al., [2008]) (Figure 3A). […] When comparing equivalent clusters, the α1,2-di-mannoside (B series) bound with the highest affinity (Figure 3A). […] A potential explanation for this effect could be that the spacing of clusters is more important for the larger tri-mannosides.
The direct interaction experiments were executed on a T200 Biacore with a CM3 series S sensor chip. Contrary to the competition assay described above, in this test, DC-SIGN ECD used harbors a StreptagII in its N-terminus (DC-SIGN S-ECD) to allow its capture and functionalization onto the surface in an oriented manner. Flow cells were functionalized as previously described (Porkolab et al., [2019]). Briefly, after EDC/NHS activation, flow cells were functionalized with streptactin protein in a first step. Flow cell 1 was used as control, while other flow cells were, in a second round of activation, functionalized with 100 μg/mL of a DC-SIGN S-ECD up to a final density ranging between 2,500 and 3,000 RU, via tag specific capture and linkage by amine coupling chemistry simultaneously. The compounds were injected in running buffer of 25 mM Tris pH 8, 150 mM NaCl, 4 mM CaCl2, 0.05% Tween 20 onto the surface at increasing concentrations with a flow rate of 30 μL/min. The ligand titration led to the determination of an apparent Kd value. The data was analyzed in BIAcore BIAevaluation software for direct interaction 1:1 calculation assuming that the Kd will reflect the affinity of the ligands (glycoclusters) for the DC-SIGN oriented surface used as a whole.

moDCs = assay: Internalization of biotinylated hexavalent clusters by moDCs (flow cytometry); assay type: cell-based, human
Protocol: For the internalization, the moDCs were incubated with clusters b6, c6, d6, and e6 for 1 h at 4°C, where after unbound ligands were washed away with ice-cold medium. Warm medium was added to the moDCs, and samples were taken at the indicated time points and put on ice. Upon staining the moDCs with fluorophore-conjugated streptavidin, we could measure the signal loss of the membrane via flow cytometry. To exclude ligand-receptor dissociation before internalization, the moDCs were fixed under gentle conditions, hereby inhibiting receptor-mediated endocytosis. On fixed moDCs the clusters remained at the surface, as no signal loss could be detected (Supplementary Figure 1D). […] The di-mannoside clusters (b6, c6, and d6) were internalized relatively fast, with a 50% uptake within 5 min (Figure 5B). The tri-mannoside cluster e6 however remained longer at the membrane surface and only a 25% uptake was seen after 30 min. Similar results were seen using a pH-sensitive fluorophore. In acidic environments, such as the endosomes and lysosomes, the fluorescence of this dye increases. Pre-complexed clusters mirrored the accelerated uptake of the di-mannoside clusters over the e6 cluster (Supplementary Figure 1E). Although the DC-SIGN mediated uptake mechanism is known (Cambi et al., [2009]), the initiation trigger for endocytosis upon DC-SIGN-ligand binding remains unclear. Recognition of the di-mannoside clusters could induce signaling leading to accelerated uptake, whereas the tri-mannoside cluster could trigger a different signaling pathway. Nonetheless, the clusters harboring the smaller mannosides are preferred. Although the binding affinity of the clusters ranged from 0.9 to 6.6 μM, the di-mannosides induce more rapid DC-SIGN internalization over the tri-mannosides, and can thus increase intracellular peptide concentrations more efficiently for further antigen processing and presentation.
Immature day 5 moDCs were harvested and washed with cold HBSS (Thermo Fischer), after which half of the moDCs were gently fixed for 20 min at RT with 1% PFA in PBS. Afterwards, 20 μM of the different biotinylated mannose-clusters in cold HBSS were added. The moDCs were incubated for 1 h on ice, and washed in cold HBSS. Subsequently, warm HBSS was added to the cells, and cells were incubated at 37°C in a shaking heating block. At the indicated time points, a sample of the cells was taken and put on ice. After the last time point, the cells were stained with Streptavidin-Alexa647 (Thermo Fisher), measured using flow cytometry (CyAn™ ADP with Summit™ Software), and further analyzed using FlowJo v10. The same procedure was used for internalization with pHrodo^TM Red Avidin (Thermo Fischer). The different biotinylated mannose-clusters were however incubated with pHrodo-Avidin (ratio 2:1) for 15 min at 37°C, prior to moDC exposure. The fluorescence upon internalization was measured using flow cytometry (BD LSRFortessa™ X-20 with FACSDiva Software), and further analyzed using FlowJo v10.

DC-SIGN on moDC = assay: Binding of biotinylated mannoside library to moDCs by flow cytometry; assay type: cell-based, human; settings: 10 μM biotinylated cluster, 30 min at 4°C, streptavidin staining
Protocol: Next, we assessed the binding of our clusters to cellular DC-SIGN using moDCs (Figure 3B, Supplementary Figure 1B). To this end, binding of the clusters a1–a6, b1–b6, c1–c6, d1–d6, and e1–e6, decorated with a biotin handle, was determined by flow cytometry. Clusters were bound to moDCs for 30 min at 4°C. By staining using fluorophore-conjugated streptavidin and washing at 4°C, the bound clusters could be quantified by flow cytometry. […] In control experiments ligand binding to DC-SIGN was inhibited using a blocking anti-DC-SIGN antibody (Supplementary Figure 1C).
Approximately 10^5 day 5 moDCs were washed and resuspended in 100 μL culture medium (pre-cooled to 4°C). 20 μg/mL AZN-D1 (anti-DC-SIGN, in house Geijtenbeek et al., [2002]) or purified mouse anti-human CD206 antibody (Clone 19.2, BD Bioscience) was added to the moDCs and pre-incubated for 45 min on ice. Subsequently, 10 μM of the biotinylated mannoside clusters or 1 μg/mL of Lewis^Y-conjugated polyacrylamide (positive control) was added, and incubated for 30 min at 4°C. Cells were then washed with pre-cooled PBS (4°C), and stained with Alexa647-labeled streptavidin (Invitrogen^TM) in PBS supplemented with 0.5% BSA and 0.02% NaN3 (PBA) for 30 min at 4°C. Upon washing in ice-cold PBA and fixation in PBS with 0.5% PFA, the fluorescence was measured by flow cytometry (CyAn™ ADP with Summit™ Software), and further analyzed using FlowJo v10.

DC-SIGN ECD = target: T2, DC-SIGN ECD (Homo sapiens, UniProt Q9NNX6); assay: SPR competition (inhibition) assay, DC-SIGN ECD on BSA-mannotriose surface; assay type: binding; settings: DC-SIGN ECD 20 μM
T2 construct: The ECD of DC-SIGN (residues 66–404) was overexpressed and purified as previously described; made in house
T2 sequence (Q9NNX6 66-404): T1 sequence (Q9NNX6 66-404)
Protocol: as §1
The ECD of DC-SIGN (residues 66–404) was overexpressed and purified as previously described (Tabarani et al., [2009]). The DC-SIGN S-ECD construct used for direct interaction experiment (see below) has been overexpressed and purified as described elsewhere (Porkolab et al., [2019]). The SPR competition experiments were performed on a BIAcore T200 using a CM3 series S sensor chip. Flow cells were activated as previously described (Halary et al., [2002]). Flow cell 1 was functionalized with BSA, blocked with ethanolamine and subsequently used as a control surface. Flow cells 2 and 3 were treated with BSA-Man α1-3[Manα1-6]Man (Dextra) (60 μg/mL) in 10 mM NaOAc pH 4 and blocked with ethanolamine. The final densities on flow cells 2 and 3 were about 2,100 RU. The affinities of the various compounds for DC-SIGN ECD were evaluated via an established inhibition assay (Andreini et al., [2011]) in which DCSIGN ECD was injected at 20 μM alone or in the presence of increasing concentration of inhibitors. Injections were performed at 5 μL/min using 25 mM Tris-HCl pH 8, 150 mM NaCl, 4 mM CaCl2, 0.05% P20 surfactant as running buffer. The surface was regenerated by the injection of 50 mM EDTA. The data was analyzed in BIAcore BIAevaluation software using four parameter equation.

Row | binding affinity for DC-SIGN relative to B6 (fold lower) (DC-SIGN S-ECD) [fold] | Kd (DC-SIGN S-ECD) | binding to DC-SIGN on moDC (DC-SIGN on moDC) | IC50 (DC-SIGN ECD) [µM] | Structure (SMILES) | internalization by moDCs (loss of surface streptavidin signal) (moDCs; 20 μM cluster, live moDCs) | uptake by immature moDCs (moDCs; after 30 min at 37°C, 20 μM cluster) [%] | internalization by moDCs (pHrodo-avidin fluorescence increase) (moDCs; clusters pre-complexed with pH-sensitive dye)
1 | 3 | 2.78 µM and 2.7 µM | did not observe an increase in binding |  | CC(=O)N[C@@H](CCCCn1cc(CO[C@H]2O[C@H](CO[C@H]3O[C@H](CO)[C@@H](O)[C@H](O)[C@@H]3O)[C@@H](O)[C@H](O[C@H]3O[C@H](CO)[C@@H](O)[C@H](O)[C@@H]3O)[C@@H]2O)nn1)C(=O)N[C@@H](CCCCn1cc(CO[C@H]2O[C@H](CO[C@H]3O[C@H](CO)[C@@H](O)[C@H](O)[C@@H]3O)[C@@H](O)[C@H](O[C@H]3O[C@H](CO)[C@@H](O)[C@H](O)[C@@H]3O)[C@@H]2O)nn1)C(=O)N[C@@H](CCCCn1cc(CO[C@H]2O[C@H](CO[C@H]3O[C@H](CO)[C@@H](O)[C@H](O)[C@@H]3O)[C@@H](O)[C@H](O[C@H]3O[C@H](CO)[C@@H](O)[C@H](O)[C@@H]3O)[C@@H]2O)nn1)C(=O)N[C@@H](CCCCn1cc(CO[C@H]2O[C@H](CO[C@H]3O[C@H](CO)[C@@H](O)[C@H](O)[C@@H]3O)[C@@H](O)[C@H](O[C@H]3O[C@H](CO)[C@@H](O)[C@H](O)[C@@H]3O)[C@@H]2O)nn1)C(=O)N[C@@H](CCCCn1cc(CO[C@H]2O[C@H](CO[C@H]3O[C@H](CO)[C@@H](O)[C@H](O)[C@@H]3O)[C@@H](O)[C@H](O[C@H]3O[C@H](CO)[C@@H](O)[C@H](O)[C@@H]3O)[C@@H]2O)nn1)C(=O)N[C@@H](CCCCn1cc(CO[C@H]2O[C@H](CO[C@H]3O[C@H](CO)[C@@H](O)[C@H](O)[C@@H]3O)[C@@H](O)[C@H](O[C@H]3O[C@H](CO)[C@@H](O)[C@H](O)[C@@H]3O)[C@@H]2O)nn1)C(=O)NCC(=O)N[C@@H](CCCCN)C(N)=O [E6] | remains longer at the surface | 25 | endocytosed at lower rate
2 |  | 7.82 ± 0.44 µM | significantly higher binding |  | CC(=O)N[C@@H](CCCCn1cc(CO[C@H]2O[C@H](CO)[C@@H](O)[C@H](O)[C@@H]2O)nn1)C(=O)N[C@@H](CCCCn1cc(CO[C@H]2O[C@H](CO)[C@@H](O)[C@H](O)[C@@H]2O)nn1)C(=O)N[C@@H](CCCCn1cc(CO[C@H]2O[C@H](CO)[C@@H](O)[C@H](O)[C@@H]2O)nn1)C(=O)N[C@@H](CCCCn1cc(CO[C@H]2O[C@H](CO)[C@@H](O)[C@H](O)[C@@H]2O)nn1)C(=O)N[C@@H](CCCCn1cc(CO[C@H]2O[C@H](CO)[C@@H](O)[C@H](O)[C@@H]2O)nn1)C(=O)N[C@@H](CCCCn1cc(CO[C@H]2O[C@H](CO)[C@@H](O)[C@H](O)[C@@H]2O)nn1)C(=O)NCC(=O)N[C@@H](CCCCN)C(N)=O [A6] |  |  | 
3 |  |  |  | 410.9 ± 0.3 | CC(=O)N[C@@H](CCCCn1cc(CO[C@H]2O[C@H](CO[C@H]3O[C@H](CO)[C@@H](O)[C@H](O)[C@@H]3O)[C@@H](O)[C@H](O)[C@@H]2O)nn1)C(=O)NCC(=O)N[C@@H](CCCCn1cc(CO[C@H]2O[C@H](CO[C@H]3O[C@H](CO)[C@@H](O)[C@H](O)[C@@H]3O)[C@@H](O)[C@H](O)[C@@H]2O)nn1)C(=O)NCC(=O)N[C@@H](CCCCN)C(N)=O [D2] |  |  | 
